Experimental data published in patent US9199962B2, “Substituted azaheterocycles for the treatment of cancer” (Merck Patent GmbH, priority 2011, dated 2015).
pIC50: −log10 of the molar value.

biological target: T1, GST-FAK (N-terminal GST fusion with truncated human FAK (376-1052 (end) amino acids)) (Homo sapiens, UniProt Q05397); assay: Biochemical enzyme assay for FAK activity (Caliper LC3000 mobility shift); details: Table 5; 100 uM ATP; read-out: FAK IC50
T1 construct: truncated human FAK (376-1052 (end) amino acids)
Summary of the method: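 Inhibitor dose series in DMSO were incubated 90 min at 25 °C with truncated GST-tagged human FAK (0.067 ng/µl) and FITC-labelled peptide substrate (1 µM), with ATP at 100 µM and FERM peptide at 1 mM (pH 7.5 HEPES). After EDTA quench, phosphorylated and unphosphorylated peptides were resolved electrophoretically. Percent conversion was fitted for IC50.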

T1 sequence (Q05397 376-1052): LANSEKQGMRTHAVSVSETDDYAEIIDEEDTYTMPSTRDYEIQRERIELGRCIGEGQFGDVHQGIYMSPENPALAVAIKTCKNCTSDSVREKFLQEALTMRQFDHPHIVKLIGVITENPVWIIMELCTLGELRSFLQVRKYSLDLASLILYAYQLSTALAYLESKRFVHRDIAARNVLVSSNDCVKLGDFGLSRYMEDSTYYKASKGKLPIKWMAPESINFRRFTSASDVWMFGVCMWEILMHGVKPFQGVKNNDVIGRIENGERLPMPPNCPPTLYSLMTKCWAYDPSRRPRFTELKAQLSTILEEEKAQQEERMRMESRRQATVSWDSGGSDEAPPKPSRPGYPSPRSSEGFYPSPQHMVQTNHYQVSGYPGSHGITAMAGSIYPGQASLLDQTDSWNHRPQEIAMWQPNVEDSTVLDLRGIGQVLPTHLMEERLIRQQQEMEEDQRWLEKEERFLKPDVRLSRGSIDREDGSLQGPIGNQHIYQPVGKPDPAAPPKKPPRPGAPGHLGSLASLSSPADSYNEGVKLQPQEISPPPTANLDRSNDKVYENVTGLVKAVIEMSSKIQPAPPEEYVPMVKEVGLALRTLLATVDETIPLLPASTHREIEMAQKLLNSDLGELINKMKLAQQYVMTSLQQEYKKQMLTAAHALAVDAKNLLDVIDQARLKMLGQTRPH

SMILES | pIC50
NC(=O)CNC(=O)c1cc(NCc2ncccc2F)nc(-c2cncc(C(F)(F)F)c2)n1 [Compound 190, 6-[(3-Fluoro-pyridin-2-ylmethyl)-amino]-2-(5-trifluoromethyl-pyridin-3-yl)-pyrimidine-4-carboxylic acid carbamoylmethyl-amide] | 6.00 to 7.00
FC(F)(F)c1cccc(CCNc2ccnc(-c3cncc(C(F)(F)F)c3)n2)c1 [Compound 191, [2-(3-Trifluoromethyl-phenyl)-ethyl]-[2-(5-trifluoromethyl-pyridin-3-yl)-pyrimidin-4-yl]-amine] | 5.00 to 6.00
COc1cncc(-c2nccc(NCCc3cccc(C(F)(F)F)c3)n2)c1 [Compound 194, [2-(5-Methoxy-pyridin-3-yl)-pyrimidin-4-yl]-[2-(3-trifluoromethyl-phenyl)-ethyl]-amine] | < 5.00
CS(=O)(=O)c1ccccc1-c1ccccc1CNc1ccnc(-c2cncc(C(F)(F)F)c2)n1 [Compound 196, (2′-Methanesulfonyl-biphenyl-2-ylmethyl)-[2-(5-trifluoromethyl-pyridin-3-yl)-pyrimidin-4-yl]-amine] | 5.00 to 6.00
CN1CCCC1CCNc1ccnc(-c2cncc(C(F)(F)F)c2)n1 (stereo not shown) [Compound 197, [2-(1-Methyl-pyrrolidin-2-yl)-ethyl]-[2-(5-trifluoromethyl-pyridin-3-yl)-pyrimidin-4-yl]-amine] | < 5.00
O=C1CCCN1CCNc1ccnc(-c2cncc(C(F)(F)F)c2)n1 [Compound 200, 1-{2-[2-(5-Trifluoromethyl-pyridin-3-yl)-pyrimidin-4-ylamino]-ethyl}-pyrrolidin-2-one] | < 5.00
COc1cncc(-c2nccc(NCCc3ccccc3Cl)n2)c1 [Compound 203, [2-(2-Chloro-phenyl)-ethyl]-[2-(5-methoxy-pyridin-3-yl)-pyrimidin-4-yl]-amine] | 5.00 to 6.00
Fc1cccnc1CNc1ccnc(-c2cncc(C(F)(F)F)c2)n1 [Compound 208, (3-Fluoro-pyridin-2-ylmethyl)-[2-(5-trifluoromethyl-pyridin-3-yl)-pyrimidin-4-yl]-amine] | 6.00 to 7.00
Fc1cnc(CNc2ccnc(-c3cncc(C(F)(F)F)c3)n2)c(F)c1 [Compound 209, (3,5-Difluoro-pyridin-2-ylmethyl)-[2-(5-trifluoromethyl-pyridin-3-yl)-pyrimidin-4-yl]-amine] | > 7.00
Fc1ccc(CNc2ccnc(-c3cccnc3)n2)c(F)c1 [Compound 210, (2,4-Difluoro-benzyl)-(2-pyridin-3-yl-pyrimidin-4-yl)-amine] | 6.00 to 7.00
Cc1cc(F)ncc1-c1nccc(NCc2ccc(F)cc2F)n1 [Compound 211, (2,4-Difluoro-benzyl)-[2-(6-fluoro-4-methyl-pyridin-3-yl)-pyrimidin-4-yl]-amine] | < 5.00
N#Cc1cncc(-c2nccc(NCc3ncccc3F)n2)c1 [Compound 213, 5-{4-[(3-Fluoro-pyridin-2-ylmethyl)-amino]-pyrimidin-2-yl}-nicotinonitrile] | 5.00 to 6.00
COc1cncc(-c2nccc(NCc3ncccc3F)n2)c1 [Compound 214, (3-Fluoro-pyridin-2-ylmethyl)-[2-(5-methoxy-pyridin-3-yl)-pyrimidin-4-yl]-amine] | 6.00 to 7.00
Fc1ccc(CNc2ccnc(-c3ccc(F)nc3)n2)c(F)c1 [Compound 217, (2,4-Difluoro-benzyl)-[2-(6-fluoro-pyridin-3-yl)-pyrimidin-4-yl]-amine] | < 5.00
FC(F)(F)c1cncc(-c2nccc(NCc3ccccn3)n2)c1 [Compound 219, Pyridin-2-ylmethyl-[2-(5-trifluoromethyl-pyridin-3-yl)-pyrimidin-4-yl]-amine] | 6.00 to 7.00
COc1cncc(-c2nccc(NCc3ccc(F)cc3F)n2)c1 [Compound 223, (2,4-Difluoro-benzyl)-[2-(5-methoxy-pyridin-3-yl)-pyrimidin-4-yl]-amine] | > 7.00
COc1cncc(-c2nccc(NCc3ccccn3)n2)c1 [Compound 228, [2-(5-Methoxy-pyridin-3-yl)-pyrimidin-4-yl]-pyridin-2-ylmethyl-amine] | 6.00 to 7.00
COc1cncc(-c2nccc(NCc3ccncc3)n2)c1 [Compound 230, [2-(5-Methoxy-pyridin-3-yl)-pyrimidin-4-yl]-pyridin-4-ylmethyl-amine] | < 5.00
Fc1ccc(CNc2cccc(-c3cncc(C(F)(F)F)c3)n2)c(F)c1 [Compound 231, (2,4-Difluoro-benzyl)-(5′-trifluoromethyl-[2,3′]bipyridinyl-6-yl)-amine] | > 7.00

Other lines, results leading:

pIC50 | SMILES
6.00 to 7.00 | CC(=O)NCCNC(=O)c1cc(NCc2ncccc2F)nc(-c2cncc(C(F)(F)F)c2)n1 [Compound 189, 6-[(3-Fluoro-pyridin-2-ylmethyl)-amino]-2-(5-trifluoromethyl-pyridin-3-yl)-pyrimidine-4-carboxylic acid (2-acetylamino-ethyl)-amide]
5.00 to 6.00 | COc1cncc(-c2nccc(NCCc3ccc(F)cc3)n2)c1 [Compound 192, [2-(4-Fluoro-phenyl)-ethyl]-[2-(5-methoxy-pyridin-3-yl)-pyrimidin-4-yl]-amine]
< 5.00 | COc1cncc(-c2nccc(NCc3ccccc3-c3ccccc3S(C)(=O)=O)n2)c1 [Compound 193, (2′-Methanesulfonyl-biphenyl-2-ylmethyl)-[2-(5-methoxy-pyridin-3-yl)-pyrimidin-4-yl]-amine]
6.00 to 7.00 | Fc1ccc(CCNc2ccnc(-c3cncc(C(F)(F)F)c3)n2)cc1 [Compound 195, [2-(4-Fluoro-phenyl)-ethyl]-[2-(5-trifluoromethyl-pyridin-3-yl)-pyrimidin-4-yl]-amine]
5.00 to 6.00 | FC(F)(F)c1cncc(-c2nccc(NCCc3ccccc3Cl)n2)c1 [Compound 198, [2-(2-Chloro-phenyl)-ethyl]-[2-(5-trifluoromethyl-pyridin-3-yl)-pyrimidin-4-yl]-amine]
< 5.00 | COc1cncc(-c2nccc(NCCN3CCCC3=O)n2)c1 [Compound 199, 1-{2-[2-(5-Methoxy-pyridin-3-yl)-pyrimidin-4-ylamino]-ethyl}-pyrrolidin-2-one]
5.00 to 6.00 | COc1ccccc1CCNc1ccnc(-c2cncc(C(F)(F)F)c2)n1 [Compound 201, [2-(2-Methoxy-phenyl)-ethyl]-[2-(5-trifluoromethyl-pyridin-3-yl)-pyrimidin-4-yl]-amine]
5.00 to 6.00 | COc1cncc(-c2nccc(NCCc3ccccc3OC)n2)c1 [Compound 202, [2-(2-Methoxy-phenyl)-ethyl]-[2-(5-methoxy-pyridin-3-yl)-pyrimidin-4-yl]-amine]
> 7.00 | COc1cncc(-c2nccc(NCc3ccc(F)cc3C(F)(F)F)n2)c1 [Compound 204, (4-Fluoro-2-trifluoromethyl-benzyl)-[2-(5-methoxy-pyridin-3-yl)-pyrimidin-4-yl]-amine]
5.00 to 6.00 | Fc1ccccc1CNc1ccnc(-c2cccnc2F)n1 [Compound 205, (2-Fluoro-benzyl)-[2-(2-fluoro-pyridin-3-yl)-pyrimidin-4-yl]-amine]
< 5.00 | Cc1cc(F)ncc1-c1nccc(NCc2ccccc2F)n1 [Compound 206, (2-Fluoro-benzyl)-[2-(6-fluoro-4-methyl-pyridin-3-yl)-pyrimidin-4-yl]-amine]
< 5.00 | Fc1ccc(-c2nccc(NCc3ccccc3F)n2)cn1 [Compound 207, (2-Fluoro-benzyl)-[2-(6-fluoro-pyridin-3-yl)-pyrimidin-4-yl]-amine]
5.00 to 6.00 | Fc1ccc(CNc2ccnc(-c3cccnc3F)n2)c(F)c1 [Compound 212, (2,4-Difluoro-benzyl)-[2-(2-fluoro-pyridin-3-yl)-pyrimidin-4-yl]-amine]
< 5.00 | N#Cc1cncc(-c2ncc(C(F)(F)F)c(NCc3ccc(F)cc3F)n2)c1 [Compound 215, 5-[4-(2,4-Difluoro-benzylamino)-5-trifluoromethyl-pyrimidin-2-yl]-nicotinonitrile]
< 5.00 | COc1cncc(-c2nccc(NCc3ccc4[nH]c(=O)[nH]c4c3)n2)c1 [Compound 216, 5-{[2-(5-Methoxy-pyridin-3-yl)-pyrimidin-4-ylamino]-methyl}-1,3-dihydro-benzoimidazol-2-one]
5.00 to 6.00 | COc1cncc(-c2nccc(NCc3cc[nH]n3)n2)c1 [Compound 218, [2-(5-Methoxy-pyridin-3-yl)-pyrimidin-4-yl]-(1H-pyrazol-3-ylmethyl)-amine]
5.00 to 6.00 | N#Cc1cncc(-c2nccc(NCc3ccccn3)n2)c1 [Compound 220, 5-{4-[(Pyridin-2-ylmethyl)-amino]-pyrimidin-2-yl}-nicotinonitrile]
< 5.00 | COc1cncc(-c2nccc(NCc3csc(-c4ccccc4)n3)n2)c1 [Compound 221, [2-(5-Methoxy-pyridin-3-yl)-pyrimidin-4-yl]-(2-phenyl-thiazol-4-ylmethyl)-amine]
< 5.00 | COc1cncc(-c2nccc(NCc3cc(C)nn3C)n2)c1 [Compound 222, (2,5-Dimethyl-2H-pyrazol-3-ylmethyl)-[2-(5-methoxy-pyridin-3-yl)-pyrimidin-4-yl]-amine]
6.00 to 7.00 | COc1cncc(-c2nccc(NCc3cc(F)c(F)cc3F)n2)c1 [Compound 224, [2-(5-Methoxy-pyridin-3-yl)-pyrimidin-4-yl]-(2,4,5-trifluoro-benzyl)-amine]
5.00 to 6.00 | COc1cncc(-c2nccc(NCc3cccc(C#N)c3)n2)c1 [Compound 225, 3-{[2-(5-Methoxy-pyridin-3-yl)-pyrimidin-4-ylamino]-methyl}-benzonitrile]
6.00 to 7.00 | COc1cncc(-c2nccc(NCc3cc(F)ccc3F)n2)c1 [Compound 226, (2,5-Difluoro-benzyl)-[2-(5-methoxy-pyridin-3-yl)-pyrimidin-4-yl]-amine]
6.00 to 7.00 | COc1cncc(-c2nccc(NCc3ccccc3)n2)c1 [Compound 227, Benzyl-[2-(5-methoxy-pyridin-3-yl)-pyrimidin-4-yl]-amine]
5.00 to 6.00 | COc1cncc(-c2nccc(NCc3cccnc3)n2)c1 [Compound 229, [2-(5-Methoxy-pyridin-3-yl)-pyrimidin-4-yl]-pyridin-3-ylmethyl-amine]
